Experiments:
[1] = Evaluation of ERM production (GSH adduct detection in human liver microsomes); assay type: in vitro ADME; settings: test compound 500 µM, human liver microsomes 2 mg/mL, GSH/SI-GSH, 37°C for 60 minutes; negative = no metabolite GSH adduct pair peak
Protocol: Evaluation of ERM production from OX2R agonist
The test compound (final concentration was 500 µM, dissolved in DMSO/acetonitrile = 1/9), pooled human liver microsomes (final concentration was 2 mg/mL), L-glutathione reduced (GSH, final concentration was 0.5 mM), potassium phosphate buffer (pH 7.4, final concentration was 100 mM), and stable isotope labeled GSH (SI-GSH, final concentration was 0.5 mM) were admixed and preincubated at 37°C for 3 minutes. Thereafter, a mixed solution of glucose-6-phosphate (final concentration was 25 mM), β-nicotinamide adenine dinucleotide phosphate (final concentration was 0.25 mM), glucose-6-phosphate dehydrogenase (final concentration was 2 U/mL), and magnesium chloride (final concentration was 10 mM) was added, and incubation was performed at 37°C for 60 minutes. After the incubation, the reaction was stopped by adding a 2-fold volume of acetonitrile. A portion of the supernatant after centrifugation (about 1200 × g, 4°C, 15 minutes) was injected into a liquid chromatograph quadrupole time-of-flight mass spectrometer (Q-Tof) for analysis. The mass number of metabolites, GSH adduct and SI-GSH adduct, predicted from the chemical structural formula of the test compound was calculated, and the presence of the corresponding peaks in the measurement sample was checked. Peaks with the same retention time and approximately equal peak area of the detected peaks of the metabolites, GSH adduct and SI-GSH adduct, were extracted as pair peaks. The presence of a pair peak determined to be a metabolite GSH adduct was considered positive for ERM production potential, whereas the absence of such a peak was considered negative for ERM production potential.

male C57BL/6J mice = assay: Acceleration of locomotor activity (arousal effect in mice); assay type: in vivo; settings: 10 mg/kg of body weight, orally; cumulative counts for one hour after administration; solvent administration group = 100%
Protocol: Acceleration of locomotor activity
Acceleration of locomotor activity in rodents can be an indicator of arousal. An experiment was carried out on the arousal effect of the test compound in mice, using the acceleration of locomotor activity as the indicator. For the experiment, male C57BL/6J mice (6 weeks old, THE JACKSON LABORATORY JAPAN, INC., 6 to 8 animals per group) were used. Mice were allowed to acclimate for 1 hour or longer in the rearing cage in the room where the measurement was to be performed, until the experiment. After the acclimation, the mice were placed in a locomotor activity measuring apparatus (the behavior analyzer SCANET-40 series, Melquest Ltd.) equipped with an infrared sensor to start the measurement. After 2 hours, either the solvent or the test compound (10 mg/kg of body weight) was orally administered, and the mice were immediately returned to the measuring apparatus and the measurement was further performed for 2 hours. The test compound was suspended in the 0.5 w/v% methylcellulose 400 solution (Wako Pure Chemical Industries, Ltd., Japan). The locomotor activity was counted every 5 minutes, and the cumulative counts for one hour after administration were calculated for each treatment group. The proportion of the locomotor activity of the test compound administration group to the solvent administration group whose locomotor activity was defined as 100% was calculated and shown in Table 2.

human OX2R = target: T1, human OX2R (Homo sapiens, UniProt O43614); assay: Evaluation of OX2R agonist activity (intracellular calcium, CHO-K1 cells with forced expression of human OX2R); assay type: cell-based; settings: CHO-K1 cells expressing human OX2R; 100% = 5 µM of the reference compound; read-out: hOX2R EC50
T1 construct: host or cells: CHO-K1 (Chinese Hamster Ovary K1)
T1 sequence (O43614 1-444): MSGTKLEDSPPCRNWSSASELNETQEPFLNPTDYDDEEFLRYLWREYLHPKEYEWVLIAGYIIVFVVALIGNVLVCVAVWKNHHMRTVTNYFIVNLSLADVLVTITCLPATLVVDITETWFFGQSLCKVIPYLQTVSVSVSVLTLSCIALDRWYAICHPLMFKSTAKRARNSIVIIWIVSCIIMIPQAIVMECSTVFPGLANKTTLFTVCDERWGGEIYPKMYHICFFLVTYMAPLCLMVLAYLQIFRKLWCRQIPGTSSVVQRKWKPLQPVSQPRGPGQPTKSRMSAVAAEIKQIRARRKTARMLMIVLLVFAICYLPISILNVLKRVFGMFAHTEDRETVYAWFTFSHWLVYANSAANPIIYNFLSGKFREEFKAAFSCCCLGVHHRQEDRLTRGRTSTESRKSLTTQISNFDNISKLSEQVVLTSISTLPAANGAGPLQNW
Procedure, shortened: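 Cells seeded 7500/well, cultured 24 h, loaded with Fluo 4-AM (2.5 µg/mL final) plus probenecid for 30 min. Calcium response read as 480/540 nm excitation ratio; max–min signal 5–7 s after compound addition, normalized to buffer (0%) and 5 µM reference agonist (100%). EC50 from concentration series; 0.5% DMSO final.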

[2] = Evaluation of metabolic stability in human liver microsomes; assay type: in vitro ADME
Protocol: Evaluation of metabolic stability of OX2R agonist
The test compound (final concentration was 1 µM, dissolved in DMSO/acetonitrile = 1/99), pooled human liver microsomes (final concentration was 0.5 mg/mL), and sodium phosphate buffer (pH 7.4, final concentration was 100 mM) were admixed and preincubated at 37°C for 15 minutes. Thereafter, a mixed solution of glucose-6-phosphate (final concentration was 10 mM), glucose-6-phosphate dehydrogenase (final concentration was 1 U/mL), and magnesium chloride (final concentration was 3.3 mM) was added and a certain amount of the mixture was collected. Then, an acetonitrile/methanol mixed solution (75/25, v/v) containing a 4.5-fold volume of internal standard substances (final concentrations: phenacetin: 1 ng/mL, niflumic acid: 15 ng/mL, furosemide: 20 ng/mL) was added to stop the reaction (0 min sample). Subsequently, β-nicotinamide adenine dinucleotide phosphate (final concentration was 1 mM) was added, and after 30 minutes of incubation at 37°C, a certain amount of the mixture was collected, to which an acetonitrile/methanol mixed solution (75/25, v/v) containing a 4.5-fold volume of the internal standard substances was added to stop the reaction (30 min sample). For both samples, a portion of the supernatant after centrifugation (about 1200 × g, 4°C, 15 minutes) was injected into a liquid chromatograph tandem quadrupole mass spectrometer (LC-MS/MS) for analysis. The metabolic stability was evaluated by comparing the test compound/internal standard substance ratio of the 30 min sample with the 0 min sample and calculating the residual ratio of the test compound. […]

[2H][C@](C)(O)C(=O)N1C2CC(C2)[C@H](NS(C)(=O)=O)[C@@H]1Cc1cc(F)cc(-c2ccccc2)c1F [Example 98, N-{(3S,4S)-3-[(2,5-Difluoro[biphenyl]-3-yl)methyl]-2-[(2R)-2-hydroxy(2-^2H)propanoyl]-2-azabicyclo[3.1.1]heptan-4-yl}methanesulfonamide]
ERM production potential [1]: negative
Locomotor activity (%) (male C57BL/6J mice): 281%
EC50 (human OX2R): 0.036 µM
metabolic stability compared to the corresponding compounds that were not deuterated ([2]; human liver microsomes, 30 minutes, deuterated at specific positions): improved metabolic stability
Human metabolic stability Residual ratio (%) ([2]; test compound 1 µM, human liver microsomes 0.5 mg/mL, 30 minutes at 37°C): 58%
